A value given as a limit tells only on which side of the number the result lay.

For the assay, the system named is PC-3 cells. Nature of the assay: Cell Proliferation Assay (Cell Titer Glo), PC-3 cell line. The class given is cell-based. As to conditions: Homo sapiens, PC-3, PC3 cells; read-out: CPEC50 PC3. The protocol: IV. Cell Proliferation Assay Protocol:
A2780, PC-3, or PC3MM cells were seeded at 1000 cells/well in 100 μL/well (10.000 cells/mL) growth media in 96-well plates. Cells were allowed to adhere to the bottom of plates for 3-5 hours in a 37° C. 5% CO2 incubator. Compounds were dissolved in DMSO and then transferred to the cell plates. The cells were incubated with the compounds for 3 days in a 37° C. 5% CO2 incubator. The growth medium containing the compounds was then removed from the cells and fresh medium was added, followed by 100 μL of Cell Titer Glo assay reagent (Promega). This mixture was shaken for 1 minute and then incubated without shaking for 10 minutes. Activity determinations for the compounds were made by detection on a Trilux Instrument.
V. Cell Proliferation Assay Protocol: PC-3 Cell Line
PC-3 cells were seeded at 1000 cells/well in 100 μL/well (10.000 cells/mL) along with growth media into black-walled, clear bottom 96-well plates. The cells were allowed to adhere to the bottom of the plate for 3-5 hours in a 37° C. 5% CO2 incubator.
Test compounds were diluted to 500× in DMSO. The DMSO solutions of six of the compounds were transferred to the cells in the 96 well round bottom plate, column 2, row B-F. A 1:3 serial dilution of each compound was carried out. The serial dilution comprised adding 20 μL of DMSO to the wells containing the compounds and doing a 1:3 dilution across the plate from columns 2-10. Column 11 contained only DMSO. The serial dilution was carried out using a BioMek 2000 protocol “CP Serial Dilution using 250 μL tips” or “Proliferation Compound” (if using 20 μL tips).
To a 96 deep well block, columns 2-11 rows B-F, was transferred 500 μL of growth medium. Using the FX protocol “HH_CellAssay—2 μL to 500 μL”, 2 μL of compound from each cell of the compound plate was transferred to the corresponding cell in the 96 deep well block containing 500 μL of growth medium. The instrument was programmed to dilute the compound in growth medium and then transfer 100 μL of that mixture to cell plates containing cells. The cell plates, to which test compounds had been added, were incubated for 3 days at 37° C. Following the incubation, the medium was removed and replaced with fresh medium. Cell Titer Glo (100 μL) was added to each well and the plate was shaken for 1 minute and then incubated without shaking for 10 minutes. The plates were then read using a Trilux instrument.
Take `Nc1cc(C(F)(F)F)c(-c2ccc3cnc(Nc4ccc(S(N)(=O)=O)cc4)nc3c2OC2CCNCC2)cn1` [Compound 934, 4-(7-(6-amino-4-(trifluoromethyl)pyridin-3-yl)-8-(piperidin-4-yloxy)quinazolin-2-ylamino)benzenesulfonamide]: the EC50 is < 5 µM. As to `COc1cc(Nc2ncc3ccc(OC4CCNCC4)cc3n2)cc(OC)c1` [Compound 957, N-(3,5-dimethoxyphenyl)-7-(piperidin-4-yloxy)quinazolin-2-amine], the EC50 was < 5 µM.

With `CCN1CCC(Oc2ccc3cnc(Nc4cc(OC)cc(OC)c4)nc3c2)CC1` [Compound 958, N-(3,5-dimethoxyphenyl)-7-(1-ethylpiperidin-4-yloxy)quinazolin-2-amine], the EC50 was < 5 µM. Regarding `CC(C)N1CCC(Oc2ccc3cnc(Nc4ccc(Cl)cc4)nc3c2)CC1` [Compound 959, N-(4-chlorophenyl)-7-(1-isopropylpiperidin-4-yloxy)quinazolin-2-amine], the EC50 is < 5 µM. Consider `CC(C)NS(=O)(=O)c1ccc(Nc2ncc3ccc(OC4CCN(C(C)C)CC4)cc3n2)cc1` [Compound 961, N-isopropyl-4-(7-(1-isopropylpiperidin-4-yloxy)quinazolin-2-ylamino)benzenesulfonamide], for which the EC50 is < 5 µM. With `CNC(=O)Cc1ccc(Nc2ncc3cccc(OC4CCN(C(C)C)CC4)c3n2)cc1` [Compound 966, 2-(4-(8-(1-isopropylpiperidin-4-yloxy)quinazolin-2-ylamino)phenyl)-N-methylacetamide], the EC50 is < 5 µM. Regarding `CC(C)NC(=O)Cc1ccc(Nc2ncc3cccc(OC4CCN(C(C)C)CC4)c3n2)cc1` [Compound 967, N-isopropyl-2-(4-(8-(1-isopropylpiperidin-4-yloxy)quinazolin-2-ylamino)phenyl)acetamide], the EC50 is < 5 µM. Consider `CC(C)N1CCC(Oc2cccc3cnc(Nc4ccc(N5CCOCC5)cc4)nc23)CC1` [Compound 968, 8-(1-isopropylpiperidin-4-yloxy)-N-(4-morpholinophenyl)quinazolin-2-amine], for which the EC50 was < 5 µM. In the case of `CC(=O)Nc1ccc(Nc2ncc3cccc(OC4CCN(C(C)C)CC4)c3n2)cc1` [Compound 969], the EC50 was < 5 µM. Turning to `CC(C)N1CCC(Oc2cccc3cnc(Nc4ccc(CC(N)=O)cc4)nc23)CC1` [Compound 970, 2-(4-(8-(1-isopropylpiperidin-4-yloxy)quinazolin-2-ylamino)phenyl)acetamide], the EC50 is < 5 µM. Take `Fc1ccc(Nc2ncc3ccc(OC4CCNCC4)cc3n2)cc1` [Compound 988, N-(4-fluorophenyl)-7-(piperidin-4-yloxy)quinazolin-2-amine]: the EC50 was < 5 µM. Consider `CC(C)N1CCC(Oc2ccc3cnc(Nc4ccc(F)cc4)nc3c2)CC1` [Compound 989, N-(4-fluorophenyl)-7-(1-isopropylpiperidin-4-yloxy)quinazolin-2-amine], for which the EC50 lay in the range of 5 to 10 µM.

Turning to `CNS(=O)(=O)Cc1ccc(Nc2ncc3ccc(OC4CCN(C(C)C)CC4)cc3n2)cc1` [Compound 990, 1-(4-(7-(1-isopropylpiperidin-4-yloxy)quinazolin-2-ylamino)phenyl)-N-methylmethanesulfonamide], the EC50 was < 5 µM.

`CC(C)N1CCC(Oc2cccc3cnc(Nc4ccc(NC(=O)N5CCCC5)cc4)nc23)CC1` [Compound 992, N-(4-(8-(1-isopropylpiperidin-4-yloxy)quinazolin-2-ylamino)phenyl)pyrrolidine-1-carboxamide]: the EC50 is < 5 µM. For the molecule `CC(C)N1CCC(Oc2cccc3cnc(Nc4cccc(CC(N)=O)c4)nc23)CC1` [Compound 1002, 2-(3-(8-(1-isopropylpiperidin-4-yloxy)quinazolin-2-ylamino)phenyl)acetamide], the EC50 was in the range of 5 to 10 µM.

As for `CNC(=O)Cc1cccc(Nc2ncc3cccc(OC4CCN(C(C)C)CC4)c3n2)c1` [Compound 1003, 2-(3-(8-(1-isopropylpiperidin-4-yloxy)quinazolin-2-ylamino)phenyl)-N-methylacetamide], the EC50 was < 5 µM. With `CNC(=O)Cc1cccc(NC(=O)Cc2cccc(Nc3ncc4cccc(OC5CCN(C(C)C)CC5)c4n3)c2)c1` [Compound 1004, 2-(3-(8-(1-isopropylpiperidin-4-yloxy)quinazolin-2-ylamino)phenyl)-N-(3-(2-(methylamino)-2-oxoethyl)phenyl)acetamide], the EC50 is < 5 µM. For the molecule `CC(C)NC(=O)Cc1cccc(Nc2ncc3cccc(OC4CCN(C(C)C)CC4)c3n2)c1` [Compound 1005, N-isopropyl-2-(3-(8-(1-isopropylpiperidin-4-yloxy)quinazolin-2-ylamino)phenyl)acetamide], the EC50 was < 5 µM.

`CC(C)N1CCC(Oc2cccc3cnc(Nc4cccc(N5CCOCC5)c4)nc23)CC1` [Compound 1006, 8-(1-isopropylpiperidin-4-yloxy)-N-(3-morpholinophenyl)quinazolin-2-amine]: the EC50 was in the range of 5 to 10 µM.

Take `CC(=O)Nc1cccc(Nc2ncc3cccc(OC4CCN(C(C)C)CC4)c3n2)c1` [Compound 1007, N-(3-(8-(1-isopropylpiperidin-4-yloxy)quinazolin-2-ylamino)phenyl)acetamide]: the EC50 was < 5 µM. As to `CNS(=O)(=O)Cc1ccc(Nc2ncc3cccc(OC4CCN(C(C)C)CC4)c3n2)cc1` [Compound 1008, 1-(4-(8-(1-isopropylpiperidin-4-yloxy)quinazolin-2-ylamino)phenyl)-N-methylmethanesulfonamide], the EC50 was < 5 µM. The value for `CC(C)N1CCC(Oc2cccc3cnc(Nc4ccc(F)cc4)nc23)CC1` [Compound 1009, N-(4-fluorophenyl)-8-(1-isopropylpiperidin-4-yloxy)quinazolin-2-amine] was 5 to 10 µM. The value for `CC(C)N1CCC(Oc2cccc3cnc(Nc4ccc(Cl)cc4)nc23)CC1` [Compound 1010, N-(4-chlorophenyl)-8-(1-isopropylpiperidin-4-yloxy)quinazolin-2-amine] was < 5 µM; that for `CC(C)N1CCC(Oc2cccc3cnc(Nc4ccc(C(F)(F)F)cc4)nc23)CC1` [Compound 1011, 8-(1-isopropylpiperidin-4-yloxy)-N-(4-(trifluoromethyl)phenyl)quinazolin-2-amine] was < 5 µM; that for `CC(C)N1CCC(Oc2ccc3cnc(Nc4ccc(N)c(Cl)c4)nc3c2)CC1` [Compound 1013, 3-chloro-N1-(7-(1-isopropylpiperidin-4-yloxy)quinazolin-2-yl)benzene-1,4-diamine] was 5 to 10 µM. Take `CC(=O)Nc1ccc(Nc2ncc3ccc(OC4CCNCC4)cc3n2)cc1C` [Compound 1014, N-(2-methyl-4-(7-(piperidin-4-yloxy)quinazolin-2-ylamino)phenyl)acetamide]: the EC50 is < 5 µM. Consider `C#Cc1cc(OC2CCN(C(C)C)CC2)c2nc(Nc3ccc(S(N)(=O)=O)cc3)ncc2c1` [Compound 1015, 4-(6-ethynyl-8-(1-isopropylpiperidin-4-yloxy)quinazolin-2-ylamino)benzenesulfonamide], for which the EC50 was < 5 µM.
